Columns and labels:
[1] = biological target: T1, Serine/threonine-protein kinase Sgk3 (Homo sapiens) (UniProt Q96BR1); experiment: Inhibition of human full length SGK3 expressed in baculovirus assessed as substrate phosphorylation using fluorescence-labelled peptides as substrate at 0.06 uM after 90 mins by microfluidic peptide phosphorylation assay
T1 sequence (whole entry): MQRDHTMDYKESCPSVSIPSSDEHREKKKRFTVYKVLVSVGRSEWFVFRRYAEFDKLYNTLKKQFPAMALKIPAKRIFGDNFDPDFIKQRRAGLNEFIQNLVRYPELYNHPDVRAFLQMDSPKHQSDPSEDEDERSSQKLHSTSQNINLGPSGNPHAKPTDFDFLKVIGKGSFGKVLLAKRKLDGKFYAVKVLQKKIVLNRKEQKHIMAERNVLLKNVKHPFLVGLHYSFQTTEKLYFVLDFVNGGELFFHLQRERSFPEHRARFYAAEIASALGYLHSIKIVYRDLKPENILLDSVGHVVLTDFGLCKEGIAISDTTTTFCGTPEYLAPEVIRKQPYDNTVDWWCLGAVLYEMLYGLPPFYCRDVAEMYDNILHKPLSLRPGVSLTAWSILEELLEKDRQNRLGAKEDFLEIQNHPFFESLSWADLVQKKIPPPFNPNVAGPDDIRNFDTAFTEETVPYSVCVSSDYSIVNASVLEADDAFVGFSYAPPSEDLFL

[2] = biological target: T2, Serine/threonine-protein kinase Sgk1 (Homo sapiens) (UniProt O00141); experiment: Inhibition of human truncated SGK1 expressed in baculovirus assessed as substrate phosphorylation using fluorescence-labelled peptides as substrate at 0.06 uM after 90 mins by microfluidic peptide phosphorylation assay
T2 sequence (whole entry): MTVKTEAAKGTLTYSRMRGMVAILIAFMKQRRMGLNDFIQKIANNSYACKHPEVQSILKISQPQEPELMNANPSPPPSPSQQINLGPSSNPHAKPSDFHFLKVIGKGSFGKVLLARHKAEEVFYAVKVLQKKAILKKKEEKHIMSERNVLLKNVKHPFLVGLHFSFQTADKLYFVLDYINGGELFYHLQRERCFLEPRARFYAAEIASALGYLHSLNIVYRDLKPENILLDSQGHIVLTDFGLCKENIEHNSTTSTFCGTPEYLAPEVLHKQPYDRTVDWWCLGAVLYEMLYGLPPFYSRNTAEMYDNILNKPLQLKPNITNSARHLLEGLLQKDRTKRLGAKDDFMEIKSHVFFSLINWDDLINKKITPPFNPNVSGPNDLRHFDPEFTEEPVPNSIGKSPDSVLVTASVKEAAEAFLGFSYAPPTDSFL

[3] = biological target: Calcium/calmodulin-dependent protein kinase type II subunit gamma (Homo sapiens) (UniProt Q13555); experiment: Inhibition of human CAMK2 gamma catalytic domain expressed in baculovirus assessed as substrate phosphorylation using fluorescence-labelled peptides as substrate at 0.06 uM after 90 mins by microfluidic peptide phosphorylation assay
Sequence of Calcium/calmodulin-dependent protein kinase type II subunit gamma (Homo sapiens) (Q13555 whole entry, the tested form may be a part): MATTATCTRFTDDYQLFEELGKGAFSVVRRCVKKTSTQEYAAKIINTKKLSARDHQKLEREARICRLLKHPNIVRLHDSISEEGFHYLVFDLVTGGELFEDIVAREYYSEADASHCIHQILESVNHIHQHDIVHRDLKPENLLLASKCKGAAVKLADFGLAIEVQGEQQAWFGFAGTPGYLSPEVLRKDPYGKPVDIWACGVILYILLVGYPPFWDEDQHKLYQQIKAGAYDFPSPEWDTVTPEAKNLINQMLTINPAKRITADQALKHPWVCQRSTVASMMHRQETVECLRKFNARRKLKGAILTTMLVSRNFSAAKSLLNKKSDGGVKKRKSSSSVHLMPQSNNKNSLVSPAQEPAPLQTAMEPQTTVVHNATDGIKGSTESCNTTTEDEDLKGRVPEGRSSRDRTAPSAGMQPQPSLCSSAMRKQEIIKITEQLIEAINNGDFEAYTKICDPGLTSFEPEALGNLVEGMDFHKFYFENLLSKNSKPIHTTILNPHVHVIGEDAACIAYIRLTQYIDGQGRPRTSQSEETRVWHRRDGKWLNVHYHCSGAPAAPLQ

[4] = biological target: Tyrosine-protein kinase Fer (Homo sapiens) (UniProt P16591); experiment: Inhibition of human FER catalytic domain expressed in baculovirus assessed as substrate phosphorylation using fluorescence-labelled peptides as substrate at 70 uM after 90 mins by microfluidic peptide phosphorylation assay
Sequence of Tyrosine-protein kinase Fer (Homo sapiens) (P16591 whole entry, looked up, the tested form may be a part): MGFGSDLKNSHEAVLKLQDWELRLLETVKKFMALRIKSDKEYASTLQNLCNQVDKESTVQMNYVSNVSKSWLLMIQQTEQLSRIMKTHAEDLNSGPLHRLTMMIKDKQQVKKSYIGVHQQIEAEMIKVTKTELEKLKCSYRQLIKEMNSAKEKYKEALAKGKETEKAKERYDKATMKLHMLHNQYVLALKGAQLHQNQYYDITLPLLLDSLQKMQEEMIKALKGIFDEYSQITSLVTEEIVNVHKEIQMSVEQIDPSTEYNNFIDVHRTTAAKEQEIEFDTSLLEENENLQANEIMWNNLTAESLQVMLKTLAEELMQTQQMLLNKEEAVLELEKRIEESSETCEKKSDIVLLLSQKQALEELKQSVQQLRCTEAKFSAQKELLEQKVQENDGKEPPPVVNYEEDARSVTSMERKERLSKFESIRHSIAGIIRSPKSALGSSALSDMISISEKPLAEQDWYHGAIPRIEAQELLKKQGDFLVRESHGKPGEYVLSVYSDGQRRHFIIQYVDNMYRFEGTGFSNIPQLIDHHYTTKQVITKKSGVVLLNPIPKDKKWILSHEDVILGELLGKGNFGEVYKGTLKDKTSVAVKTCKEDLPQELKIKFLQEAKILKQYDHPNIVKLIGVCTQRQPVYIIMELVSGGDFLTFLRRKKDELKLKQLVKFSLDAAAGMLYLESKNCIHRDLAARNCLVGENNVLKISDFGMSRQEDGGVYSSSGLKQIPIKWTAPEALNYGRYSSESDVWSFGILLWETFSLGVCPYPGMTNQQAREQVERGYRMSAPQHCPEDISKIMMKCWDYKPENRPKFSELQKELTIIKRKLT

[5] = biological target: T3, Serine/threonine-protein kinase 3 (Homo sapiens) (UniProt Q13188); experiment: Inhibition of human full length MST2 expressed in baculovirus assessed as substrate phosphorylation using fluorescence-labelled peptides as substrate at 0.2 uM after 90 mins by microfluidic peptide phosphorylation assay
T3 sequence (whole entry): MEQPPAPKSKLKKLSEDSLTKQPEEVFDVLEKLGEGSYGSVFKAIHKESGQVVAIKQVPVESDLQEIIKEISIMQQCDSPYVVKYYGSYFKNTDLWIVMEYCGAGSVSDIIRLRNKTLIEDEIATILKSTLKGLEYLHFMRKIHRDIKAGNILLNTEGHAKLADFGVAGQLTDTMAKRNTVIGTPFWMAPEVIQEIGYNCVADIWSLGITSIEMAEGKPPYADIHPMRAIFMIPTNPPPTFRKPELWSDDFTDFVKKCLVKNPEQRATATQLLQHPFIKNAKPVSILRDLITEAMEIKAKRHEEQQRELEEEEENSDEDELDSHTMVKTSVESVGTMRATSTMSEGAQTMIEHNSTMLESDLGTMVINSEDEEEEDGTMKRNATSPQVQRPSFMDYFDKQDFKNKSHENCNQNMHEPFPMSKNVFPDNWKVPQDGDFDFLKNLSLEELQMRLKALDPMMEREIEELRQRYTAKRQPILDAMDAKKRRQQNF

[6] = biological target: Rho-associated protein kinase 2 (Homo sapiens) (UniProt O75116); experiment: Inhibition of human ROCK2 catalytic domain expressed in baculovirus assessed as substrate phosphorylation using fluorescence-labelled peptides as substrate at 0.2 uM after 90 mins by microfluidic peptide phosphorylation assay
[7] = biological target: Serine/threonine-protein kinase PAK 2 (Homo sapiens) (UniProt Q13177); experiment: Inhibition of human truncated PAK2 expressed in Escherichia coli cell assessed as substrate phosphorylation using fluorescence-labelled peptides as substrate at 420 uM after 90 mins by microfluidic peptide phosphorylation assay
Sequence of Serine/threonine-protein kinase PAK 2 (Homo sapiens) (Q13177 whole entry, the tested form may be a part, canonical isoform): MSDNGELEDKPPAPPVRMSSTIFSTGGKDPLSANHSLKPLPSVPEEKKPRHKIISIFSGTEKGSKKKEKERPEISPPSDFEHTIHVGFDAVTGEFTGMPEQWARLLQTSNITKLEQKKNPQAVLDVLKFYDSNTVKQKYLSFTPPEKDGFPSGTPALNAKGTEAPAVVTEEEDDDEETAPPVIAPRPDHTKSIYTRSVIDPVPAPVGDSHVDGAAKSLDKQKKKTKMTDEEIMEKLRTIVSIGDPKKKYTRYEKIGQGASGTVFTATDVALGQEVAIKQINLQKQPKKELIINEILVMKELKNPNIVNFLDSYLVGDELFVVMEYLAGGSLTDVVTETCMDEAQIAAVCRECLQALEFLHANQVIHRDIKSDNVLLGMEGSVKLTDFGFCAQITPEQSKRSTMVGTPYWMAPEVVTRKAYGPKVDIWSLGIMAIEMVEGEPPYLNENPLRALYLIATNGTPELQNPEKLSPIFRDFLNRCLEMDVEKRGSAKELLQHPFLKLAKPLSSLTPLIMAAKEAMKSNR

[8] = biological target: Casein kinase I isoform alpha (Homo sapiens) (UniProt P48729); experiment: Inhibition of human full length CSNK1A1 expressed in baculovirus assessed as substrate phosphorylation using fluorescence-labelled peptides as substrate at 9 uM after 90 mins by microfluidic peptide phosphorylation assay
Sequence of Casein kinase I isoform alpha (Homo sapiens) (P48729 2-337 limits assumed): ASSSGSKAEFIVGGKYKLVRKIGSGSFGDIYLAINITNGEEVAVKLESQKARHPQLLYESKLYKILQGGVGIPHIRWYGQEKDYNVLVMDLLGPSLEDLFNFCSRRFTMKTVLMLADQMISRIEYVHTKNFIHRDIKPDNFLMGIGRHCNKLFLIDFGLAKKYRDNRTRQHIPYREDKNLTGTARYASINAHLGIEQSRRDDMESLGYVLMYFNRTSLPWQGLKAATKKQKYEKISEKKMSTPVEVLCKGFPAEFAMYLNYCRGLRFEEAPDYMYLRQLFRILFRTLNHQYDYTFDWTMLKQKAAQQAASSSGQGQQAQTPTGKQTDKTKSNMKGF

[9] = biological target: Receptor-type tyrosine-protein kinase FLT3 (Homo sapiens) (UniProt P36888); experiment: Inhibition of human FLT3 catalytic domain expressed in baculovirus assessed as substrate phosphorylation using fluorescence-labelled peptides as substrate at 1000 uM after 90 mins by microfluidic peptide phosphorylation assay
Sequence of Receptor-type tyrosine-protein kinase FLT3 (Homo sapiens) (P36888 whole entry, the tested form may be a part): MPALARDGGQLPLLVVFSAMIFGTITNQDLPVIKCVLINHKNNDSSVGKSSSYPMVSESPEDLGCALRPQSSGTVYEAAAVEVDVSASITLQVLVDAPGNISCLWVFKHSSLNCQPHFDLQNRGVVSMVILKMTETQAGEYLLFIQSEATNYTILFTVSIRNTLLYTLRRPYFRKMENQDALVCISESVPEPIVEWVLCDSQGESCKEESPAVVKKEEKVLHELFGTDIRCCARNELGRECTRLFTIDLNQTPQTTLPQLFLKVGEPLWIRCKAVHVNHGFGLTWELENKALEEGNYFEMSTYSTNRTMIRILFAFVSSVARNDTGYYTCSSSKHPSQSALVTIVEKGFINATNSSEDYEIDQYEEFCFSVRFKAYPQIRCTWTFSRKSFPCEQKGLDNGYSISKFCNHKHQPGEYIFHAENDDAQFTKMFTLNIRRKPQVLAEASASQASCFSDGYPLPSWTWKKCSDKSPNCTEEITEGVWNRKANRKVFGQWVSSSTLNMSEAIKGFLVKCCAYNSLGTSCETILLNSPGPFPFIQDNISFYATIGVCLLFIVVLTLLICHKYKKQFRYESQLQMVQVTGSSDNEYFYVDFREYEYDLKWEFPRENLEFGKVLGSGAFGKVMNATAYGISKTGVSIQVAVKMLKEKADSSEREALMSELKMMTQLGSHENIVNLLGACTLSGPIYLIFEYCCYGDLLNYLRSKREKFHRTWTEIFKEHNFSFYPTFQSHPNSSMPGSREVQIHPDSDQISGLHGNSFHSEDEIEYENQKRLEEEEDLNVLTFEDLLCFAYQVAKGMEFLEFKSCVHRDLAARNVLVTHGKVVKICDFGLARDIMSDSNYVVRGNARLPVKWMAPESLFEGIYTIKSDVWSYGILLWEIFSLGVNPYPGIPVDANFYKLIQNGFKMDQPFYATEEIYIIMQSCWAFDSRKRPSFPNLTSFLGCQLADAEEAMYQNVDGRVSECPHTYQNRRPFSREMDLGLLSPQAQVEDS

[10] = biological target: MAP kinase p38 (Homo sapiens) (UniProt O15264+Q15759+Q16539+P53778); experiment: Inhibition of human full length p38 beta2 expressed in Escherichia coli cell assessed as substrate phosphorylation using fluorescence-labelled peptides as substrate at […] after 90 mins by microfluidic peptide phosphorylation assay
[11] = biological target: Glycogen synthase kinase-3 beta (Homo sapiens) (UniProt P49841); experiment: Inhibition of human full length GSK-3 beta expressed in baculovirus assessed as substrate phosphorylation using fluorescence-labelled peptides as substrate at 8 uM after 90 mins by microfluidic peptide phosphorylation assay
Sequence of Glycogen synthase kinase-3 beta (Homo sapiens) (P49841 whole entry, looked up, the tested form may be a part): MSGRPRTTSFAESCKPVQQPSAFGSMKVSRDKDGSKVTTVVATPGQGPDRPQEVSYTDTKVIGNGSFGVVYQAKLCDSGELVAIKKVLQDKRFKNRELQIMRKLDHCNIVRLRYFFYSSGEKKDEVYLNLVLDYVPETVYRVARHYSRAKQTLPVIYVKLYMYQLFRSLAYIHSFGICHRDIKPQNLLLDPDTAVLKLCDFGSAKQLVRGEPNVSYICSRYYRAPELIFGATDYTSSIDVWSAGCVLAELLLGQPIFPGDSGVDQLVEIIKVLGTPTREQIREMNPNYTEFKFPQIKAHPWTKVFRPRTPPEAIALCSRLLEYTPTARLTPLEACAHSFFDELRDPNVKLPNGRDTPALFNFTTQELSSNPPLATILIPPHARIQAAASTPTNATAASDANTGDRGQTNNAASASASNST

[12] = biological target: Vascular endothelial growth factor receptor 2 (Homo sapiens) (UniProt P35968); experiment: Inhibition of human KDR cytoplasmic domain expressed in baculovirus assessed as substrate phosphorylation using fluorescence-labelled peptides as substrate at 0.1 uM after 90 mins by microfluidic peptide phosphorylation assay
Sequence of Vascular endothelial growth factor receptor 2 (Homo sapiens) (P35968 whole entry, the tested form may be a part): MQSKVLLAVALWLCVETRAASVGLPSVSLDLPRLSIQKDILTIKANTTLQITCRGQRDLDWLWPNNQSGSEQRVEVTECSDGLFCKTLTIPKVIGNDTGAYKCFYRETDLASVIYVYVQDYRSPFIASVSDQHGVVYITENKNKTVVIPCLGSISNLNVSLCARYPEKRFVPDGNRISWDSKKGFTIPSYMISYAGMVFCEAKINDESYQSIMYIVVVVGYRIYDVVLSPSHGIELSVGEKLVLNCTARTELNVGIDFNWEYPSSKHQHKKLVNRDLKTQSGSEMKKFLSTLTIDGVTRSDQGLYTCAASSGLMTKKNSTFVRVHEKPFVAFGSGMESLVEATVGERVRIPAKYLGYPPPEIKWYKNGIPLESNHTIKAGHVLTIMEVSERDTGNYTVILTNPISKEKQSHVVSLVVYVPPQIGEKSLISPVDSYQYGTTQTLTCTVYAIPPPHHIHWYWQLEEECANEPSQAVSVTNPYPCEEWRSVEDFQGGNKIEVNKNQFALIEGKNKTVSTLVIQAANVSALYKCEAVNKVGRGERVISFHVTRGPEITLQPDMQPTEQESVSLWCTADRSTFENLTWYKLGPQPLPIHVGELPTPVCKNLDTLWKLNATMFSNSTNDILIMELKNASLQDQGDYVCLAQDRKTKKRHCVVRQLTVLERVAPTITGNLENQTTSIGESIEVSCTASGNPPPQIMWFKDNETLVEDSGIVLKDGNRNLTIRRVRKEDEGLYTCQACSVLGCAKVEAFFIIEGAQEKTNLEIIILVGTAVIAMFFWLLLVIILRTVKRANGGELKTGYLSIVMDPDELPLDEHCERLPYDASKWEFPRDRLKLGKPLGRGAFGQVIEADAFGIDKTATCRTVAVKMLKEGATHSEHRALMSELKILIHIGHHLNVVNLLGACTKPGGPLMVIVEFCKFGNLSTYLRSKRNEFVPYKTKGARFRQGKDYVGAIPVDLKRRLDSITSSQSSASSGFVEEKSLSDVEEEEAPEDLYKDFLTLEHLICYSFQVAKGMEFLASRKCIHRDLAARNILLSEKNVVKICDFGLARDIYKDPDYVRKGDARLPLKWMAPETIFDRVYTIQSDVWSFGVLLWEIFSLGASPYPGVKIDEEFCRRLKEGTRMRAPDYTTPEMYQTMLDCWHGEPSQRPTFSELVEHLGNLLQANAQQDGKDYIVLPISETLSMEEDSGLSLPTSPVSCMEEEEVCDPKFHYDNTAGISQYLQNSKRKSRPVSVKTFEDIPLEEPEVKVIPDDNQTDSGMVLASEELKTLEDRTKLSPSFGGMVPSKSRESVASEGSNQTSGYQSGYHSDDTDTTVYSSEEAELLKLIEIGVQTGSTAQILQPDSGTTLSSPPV

[13] = biological target: T1, Serine/threonine-protein kinase Sgk3 (Homo sapiens); settings: 0.1 uM
Description: Inhibition of human full length SGK3 expressed in baculovirus assessed as substrate phosphorylation using fluorescence-labelled peptides as substrate at 0.1 uM after 90 mins by microfluidic peptide phosphorylation assay

NC1(Cc2ccc(Cl)cc2)CCN(c2ncnc3[nH]ccc23)CC1
inhibition [1]: 42.5%
inhibition [2]: 56%
inhibition [3]: 0%

CNCc1ccc(-c2ncnc3[nH]cnc23)cc1
inhibition [4]: 30%

Clc1ccc(C2(c3ccc(-c4ncnc5[nH]cnc45)cc3)CCNCC2)cc1
inhibition [5]: 2%
inhibition [6]: 97%

c1nc(N2CCOCC2)c2nc[nH]c2n1
inhibition [7]: 67.5%

NCC1CN(c2ncnc3[nH]c4cnccc4c23)CCO1 (stereo not drawn)
inhibition [8]: 13%

c1cnc2[nH]ccc2c1
inhibition [9]: 75.5%

COC(=O)c1cnc(Nc2cnc(C#N)cn2)cc1NCC1CCNCC1
inhibition [10]: 1%

NCC1CCN(c2ncnc3[nH]ccc23)CC1
inhibition [11]: 0%

C[C@H](CN(C)C)Oc1nc(Nc2cc3cccc(Cl)c3cn2)cnc1C#N
inhibition [12]: 14%
inhibition [13]: 0%

Reference: ChEMBL document CHEMBL3132769, “Fragment growing to retain or alter the selectivity of anchored kinase hinge-binding fragments” (Medchemcomm, 2014)
